According to patent US3992379A, “4-Alkyldioxyalkylene-5-benzylpyrimidines” (Ludwig Heumann & Co. GmbH, priority 1973, dated 1976):
Converted amounts (≈) assume the structure as drawn.

Tests used:
[1] = J. Med. Pharm. Chem. 5, p. 1118, Tab. 9; cited from earlier work
[2] = physchem; settings: water
[3] = in vivo; settings: rat, rats
[4] = tested on: 25 coli strains; test: Anti-bacterial action test with discs impregnated with 25 μg of substance (arresting circle diameter); type: cell-based; settings: mean (x) over 25 coli strains
Protocol: The test for anti-bacterial action […] was performed with discs which were each impregnated with 25 μg of the two substances A and B: […]

[5] = Anti-bacterial action, general statement; settings: in words; compared with conventional bactericide 5-nitro-8-hydroxycholine
Text: These physical properties are required in order to meet the fundamental needs for resorption required in oral adminstration.

[6] = Toxicity, general statement; settings: in words; compared with conventional bactericide 5-nitro-8-hydroxycholine

Row | Structure (SMILES) | bactericidal activity [1] | solubility [2] [µg/mL] | LD50 [3] [mg/kg] | zone of inhibition at 25 µg/disc [4] [mm] | anti-bacterial action [5] | degree of toxicity [6]
1 | COc1ccc(Cc2cnc(N)nc2N)cc1OC [2,4-diamino-5-(3'-4'-dimethoxybenzyl)-pyrimidine] | has bactericidal activity |  |  |  |  | 
2 | COc1cc(Cc2cnc(N)nc2N)cc(OC)c1OC [2,4-diamino-5-(3',4',5'-trimethoxy-benzyl)-pyrimidine] | such activity is present in the maximum degree | 670 (≈ 2.31 mM) |  |  |  | 
3 | O=[N+]([O-])c1ccc(O)c2ncccc12 [substance A, 5-nitro-8-hydrocholine] |  |  | 830 | 20.7 |  | 
4 | COCCOc1c(OC)cc(Cc2cnc(N)nc2N)cc1OC [substance B, 2,4-diamino-5-(3',5'-dimethoxy-4'-methyldioxyethylene-benzyl)-pyrimidine] |  | 8000 (≈ 23.9 mM) |  | 28.5 | improved anti-bacterial action | substantially lower degree of toxicity
